# Target: HIF PHD2 (Homo sapiens, UniProt Q9GZT9)
# Assay: PHD2 inhibition assay (TR-FRET, VCB-Eu detection of hydroxylated P564-HIF1α peptide)
# Format: biochemical
# Conditions: 2 nM PHD2, 100 nM P564-HIF1α peptide, 0.25 μM 2-oxoglutarate, 100 μM FeCl2, 2 mM ascorbic acid
# Summary of the method: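 Human PHD2 (2 nM final) preincubated 1 h at room temperature with compound and 100 μM FeCl2 in pH 6 MES buffer, 5% DMSO final. Reaction with 100 nM biotinylated P564-HIF1α peptide, 2 mM ascorbate and 0.25 μM 2-oxoglutarate for 1 h, stopped with succinate. Hydroxylation read by TR-FRET (VCB-Eu/streptavidin-APC, 655/615 nm); IC50 from 4-parameter fit of percent of control.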
# HIF PHD2, sequence (Q9GZT9 whole entry): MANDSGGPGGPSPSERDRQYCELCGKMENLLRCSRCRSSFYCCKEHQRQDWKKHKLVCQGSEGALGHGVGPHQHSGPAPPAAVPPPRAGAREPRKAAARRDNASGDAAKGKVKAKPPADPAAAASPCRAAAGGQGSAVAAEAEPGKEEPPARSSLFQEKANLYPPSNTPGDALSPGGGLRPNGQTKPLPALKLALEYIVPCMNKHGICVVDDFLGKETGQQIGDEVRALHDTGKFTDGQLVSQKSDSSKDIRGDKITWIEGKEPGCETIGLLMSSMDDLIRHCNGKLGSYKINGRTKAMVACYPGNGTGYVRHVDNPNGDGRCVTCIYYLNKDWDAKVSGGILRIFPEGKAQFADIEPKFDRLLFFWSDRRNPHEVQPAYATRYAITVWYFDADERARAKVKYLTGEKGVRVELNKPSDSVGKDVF
row,Molecule,IC50 [nM]
1,"COc1ccc2c(c1F)C(C)(C)C(=O)C(C(=O)NCC(=O)O)=C2O [Example 22, N-((8-Fluoro-4-hydroxy-1,1-dimethyl-7-(methyloxy)-2-oxo-naphthalen-3-yl)carbonyl)glycine]",100 to 500
2,"Cc1ncccc1-c1ccc2c(c1)C(O)=C(C(=O)NCC(=O)O)C(=O)C2(C)C [Example 8, N-((4-Hydroxy-1,1-dimethyl-6-(2-methyl-3-pyridinyl)-2-oxo-naphthalen-3-yl)carbonyl)glycine]",100 to 500
3,"O=C(O)CNC(=O)C1=C(O)c2cccc(Cl)c2C2(CCOCC2)C1=O [Example 111, N-((8-Chloro-2-hydroxy-4-oxo-2′,3′,5′,6′-tetrahydro-4H-spiro[naphthalene-1,4′-pyran]-3-yl)carbonyl)glycine]",< 100
4,"O=C(O)CNC(=O)C1=C(O)c2cc(Cl)ccc2C2(CCCO2)C1=O (centres unmarked) [Example 72, N-((6′-Chloro-4′-hydroxy-2′-oxo-4,5-dihydro-spiro[furan-2,1′-naphthalen]-3′-yl)carbonyl)glycine]",< 100
5,"COCC#Cc1ccc2c(c1)C(C)(C)C(=O)C(C(=O)NCC(=O)O)=C2O [Example 116, 2-(2-hydroxy-7-(3-methoxyprop-1-ynyl)-1,1-dimethyl-4-oxo-1,4-dihydronaphthalene-3-carboxamido) acetic acid]",< 100
6,"CC1(C)C(=O)C(C(=O)CCC(=O)O)=C(O)c2ccc(Cl)cc21 [Example 127, 4-(6-chloro-1-hydroxy-4,4-dimethyl-3-oxo-3,4-dihydronaphthalen-2-yl)-4-oxobutanoic acid]",100 to 500
7,"O=C(O)CNC(=O)C1=C(O)c2ccc(F)c(F)c2C2(CCOCC2)C1=O [Example 113, N-((7,8-Difluoro-2-hydroxy-4-oxo-2′,3′,5′,6′-tetrahydro-4H-spiro[naphthalene-1,4′-pyran]-3-yl)carbonyl)glycine]",< 100
8,"CC1(C)C(=O)C(C(=O)CCC(=O)O)=C(O)c2cc(Cl)c(Cl)cc21 [Example 118, 4-(6,7-Dichloro-3-hydroxy-4,4-dimethyl-1-oxo-1,4-dihydro-2-naphthalenyl)-4-oxobutanoic acid]",100 to 500
9,"O=C(O)CNC(=O)C1=C(O)c2cccc(F)c2C2(CCOCC2)C1=O [Example 83, N-((8-Fluoro-4-hydroxy-2-oxo-2′,3′,5′,6′-tetrahydro-spiro[naphthalene-1,4′-pyran]-3-yl)carbonyl)glycine]",< 100
10,"CC1(C)C(=O)C(C(=O)NCC(=O)O)=C(O)c2ccc(-c3cccnc3)cc21 [Example 51, N-((7-(3-Pyridyl)-4-hydroxy-1,1-dimethyl-2-oxo-naphthalene-3-yl)carbonyl)glycine]",< 100
11,"Cc1ccc(-c2ccc3c(c2)C(O)=C(C(=O)NCC(=O)O)C(=O)C3(C)C)c(F)n1 [Example 6, N-((6-(2-Fluoro-6-methyl-3-pyridinyl)-4-hydroxy-1,1-dimethyl-2-oxo-naphthalen-3-yl)carbonyl)glycine]",100 to 500
12,"(R)-2-(7-chloro-1- cyano-4-hydroxy-1- methyl-2-oxo-1,2- dihydronaphthalene- 3-carboxamido) acetic acid or (S)-2-(7-chloro-1- cyano-4-hydroxy-1- methyl-2-oxo-1,2- dihydronaphthalene- 3-carboxamido) acetic acid [Example 136]",< 100
13,"CC(C)(NC(=O)C1=C(O)c2cc(Cl)ccc2C2(CCOCC2)C1=O)C(=O)O [Example 54, N-((6-Chloro-4-hydroxy-2-oxo-2′,3′,5′,6′-tetrahydro-spiro[naphthalene-1,4′-pyran]-3-yl)carbonyl)-2-methylalanine]",> 10000
14,"CC1(C)C(=O)C(C(=O)NCC(=O)O)=C(O)c2ccc(-c3ccccc3)cc21 [Example 52, N-((7-Phenyl-4-hydroxy-1,1-dimethyl-2-oxo-naphthalen-3-yl)carbonyl)glycine]",100 to 500
15,"CSc1ccc2c(c1)C(O)=C(C(=O)NCC(=O)O)C(=O)C2(C)C [Example 33, N-((4-Hydroxy-1,1-dimethyl-6-(methylthio)-2-oxo-naphthalen-3-yl)carbonyl)glycine]",< 100
16,"O=C(O)CNC(=O)C1=C(O)c2cc(F)c(Cl)cc2C2(CCOCC2)C1=O [Example 97, N-((7-Chloro-6-fluoro-4-hydroxy-2-oxo-2′,3′,5′,6′-tetrahydro-spiro[naphthalene-1,4′-pyran]-3-yl)carbonyl)glycine]",< 100
17,"C[C@@]1(C#N)C(=O)C(C(=O)NCC(=O)O)=C(O)c2ccccc21 [Example 87, N-(((1R)-1-Cyano-4-hydroxy-1-methyl-2-oxo-naphthalen-3-yl)carbonyl)glycine]",< 100
18,"CNC(=O)C1=C(O)c2cc(Cl)ccc2C(C)(C)C1=O [Example 100, 6-Chloro-4-hydroxy-N,1,1-trimethyl-2-oxo-naphthalene-3-carboxamide]",> 10000
19,"O=C(O)CNC(=O)C1=C(O)c2c(Cl)cccc2C2(CCOCC2)C1=O [Example 112, N-((5-Chloro-2-hydroxy-4-oxo-2′,3′,5′,6′-tetrahydro-4H-spiro[naphthalene-1,4′-pyran]-3-yl)carbonyl)glycine]",< 100
20,"CN(C)c1ccccc1-c1ccc2c(c1)C(O)=C(C(=O)NCC(=O)O)C(=O)C2(C)C [Example 35, N-((6-(2-(Dimethylamino)phenyl)-4-hydroxy-1,1-dimethyl-2-oxo-naphthalen-3-yl)carbonyl)glycine]",100 to 500

# Other lines, results leading:
row,IC50 [nM],Molecule
1,500 to 1000,"Cc1ccccc1-c1ccc2c(c1)C(O)=C(C(=O)NCC(=O)O)C(=O)C2(C)C [Example 65, N-((6-(2-Methylphenyl)-4-hydroxy-1,1-dimethyl-2-oxo-naphthalen-3-yl)carbonyl)glycine]"
2,1000 to 10000,"CC(CC(=O)O)C(=O)C1=C(O)c2cc(Cl)ccc2C2(CCOCC2)C1=O (centres unmarked) [Example 121, 4-(6-Chloro-2-hydroxy-4-oxo-2′,3′,5′,6′-tetrahydro-4H-spiro[naphthalene-1,4′-pyran]-3-yl)-3-methyl-4-oxobutanoic acid]"
3,< 100,"C[C@]1(C#N)C(=O)C(C(=O)NCC(=O)O)=C(O)c2ccccc21 [Example 88, N-(((1S)-1-Cyano-4-hydroxy-1-methyl-2-oxo-naphthalen-3-yl)carbonyl)glycine]"
4,< 100,"O=C(O)CNC(=O)C1=C(O)c2cc(Cl)ccc2C2(CCCOC2)C1=O (centres unmarked) [Example 75, N-((6-Chloro-4-hydroxy-2-oxo-5′,6′-dihydro-spiro[naphthalene-1,3′-pyran]-3-yl)carbonyl)glycine]"
5,100 to 500,"CCC1(C)C(=O)C(C(=O)NCC(=O)O)=C(O)c2cc(Cl)ccc21 (single isomer, unassigned) [Example 78]"
6,< 100,"CC1(C)C(=O)C(C(=O)NCC(=O)O)=C(O)c2ccc(F)cc21 [Example 47, N-((7-Fluoro-4-hydroxy-1,1-dimethyl-2-oxo-naphthalen-3-yl)carbonyl)glycine]"
7,500 to 1000,"CC1(C)C(=O)C(C(=O)NCC(=O)O)=C(O)c2cc(-c3ccc(Cl)cc3)ccc21 [Example 38, N-((6-(4-Chlorophenyl)-4-hydroxy-1,1-dimethyl-2-oxo-naphthalen-3-yl)carbonyl)glycine]"
8,500 to 1000,"C[C@]1(c2ccc(Cl)cc2)C(=O)C(C(=O)NCC(=O)O)=C(O)c2cc(Cl)ccc21 (single isomer, unassigned) [Example 30]"
9,< 100,"CC1(C)C(=O)C(C(=O)NCC(=O)O)=C(O)c2cccc(F)c21 [Example 27, N-((8-Fluoro-4-hydroxy-1,1-dimethyl-2-oxo-naphthalen-3-yl)carbonyl)glycine]"
10,< 100,"COc1cc2c(cc1Br)C1(CCOCC1)C(=O)C(C(=O)NCC(=O)O)=C2O [Example 14, N-((7-Bromo-4-hydroxy-6-(methyloxy)-2-oxo-2′,3′,5′,6′-tetrahydro-spiro[naphthalene-1,4′-pyran]-3-yl)carbonyl)glycine]"
11,> 10000,"C[C@@H](NC(=O)C1=C(O)c2cc(Cl)ccc2C(C)(C)C1=O)C(=O)O [Example 102, N-((6-chloro-4-hydroxy-1,1-dimethyl-2-oxo-naphthalen-3-yl)carbonyl)-D-alanine]"
12,100 to 500,"CN(C)c1cccc(-c2ccc3c(c2)C(O)=C(C(=O)NCC(=O)O)C(=O)C3(C)C)c1 [Example 39, N-((6-(3-(Dimethylamino)phenyl)-4-hydroxy-1,1-dimethyl-2-oxo-naphthalen-3-yl)carbonyl)glycine]"
13,1000 to 10000,"O=C(O)CNC(=O)C1=C(O)c2cc(-c3ccccc3)ccc2C2(CCCC2)C1=O [Example 67, N-((4′-Hydroxy-2′-oxo-6′-phenyl-spiro[cyclopentane-1,1′-naphthalen]-3′-yl)carbonyl)glycine]"
14,< 100,"C[C@]1(C#N)C(=O)C(C(=O)NCC(=O)O)=C(O)c2cc(Cl)ccc21 [Example 86, N-(((1S)-6-Chloro-1-cyano-4-hydroxy-1-methyl-2-oxo-naphthalen-3-yl)carbonyl)glycine]"
15,< 100,"CC1(C)C(=O)C(C(=O)NCC(=O)O)=C(O)c2ccc(C(=O)O)cc21 [Example 106, 6-((Carboxymethyl)carbamoyl)-7-hydroxy-8,8-dimethyl-5-oxo-5,8-dihydronaphthalene-2-carboxylic acid]"
16,100 to 500,"CC1(C)C(=O)C(C(=O)NCC(=O)O)=C(O)c2c(C(F)(F)F)cccc21 [Example 26, N-((4-Hydroxy-1,1-dimethyl-2-oxo-5-(trifluoromethyl)-naphthalen-3-yl)carbonyl)glycine]"
17,1000 to 10000,"CC1(C)C(=O)C(C(=O)NCC(=O)O)=C(O)c2cc(-c3cncc(F)c3)ccc21 [Example 9, N-((6-(5-Fluoro-3-pyridinyl)-4-hydroxy-1,1-dimethyl-2-oxo-naphthalen-3-yl)carbonyl)glycine]"
18,< 100,"CC1(C#N)C(=O)C(C(=O)NCC(=O)O)=C(O)c2cc(F)ccc21 (centres unmarked) [Example 131, 2-(1-cyano-6-fluoro-4-hydroxy-1-methyl-2-oxo-1,2-dihydronaphthalene-3-carboxamido) acetic acid]"

# — US7928139B2 (Amgen Inc., priority 2006, dated 2011)
